This note sets out measurements from patent US20240383911A1, “AZAINDAZOLE MACROCYCLE COMPOUNDS AND USES THEREOF” (BROADENBIO CO., LTD, priority 2021, published 2024).

pIC50: −log10 of the molar value.

For the experiment, the target named is HPK1 (Homo sapiens, UniProt Q92918). Put plainly: HPK1 kinase activity inhibition test (ADP-Glo, luminescence). The experiment is classed as biochemical. The following applies: 2 μM ATP, 5 nM HPK1, read-out: IC50, inhibitory effects on HPK1 kinase activity. As to the method: The kinase activity of HPK1 is manifested as activity of autophosphorylation and phosphorylation of downstream substrates. In the process of autophosphorylation, additional substrates are not required, and ATP is consumed to generate ADP. The amount of the product is measured by ADP-Glo reagent and luminescence method to reflect kinase activity.
Chain of HPK1 (Q92918 whole entry): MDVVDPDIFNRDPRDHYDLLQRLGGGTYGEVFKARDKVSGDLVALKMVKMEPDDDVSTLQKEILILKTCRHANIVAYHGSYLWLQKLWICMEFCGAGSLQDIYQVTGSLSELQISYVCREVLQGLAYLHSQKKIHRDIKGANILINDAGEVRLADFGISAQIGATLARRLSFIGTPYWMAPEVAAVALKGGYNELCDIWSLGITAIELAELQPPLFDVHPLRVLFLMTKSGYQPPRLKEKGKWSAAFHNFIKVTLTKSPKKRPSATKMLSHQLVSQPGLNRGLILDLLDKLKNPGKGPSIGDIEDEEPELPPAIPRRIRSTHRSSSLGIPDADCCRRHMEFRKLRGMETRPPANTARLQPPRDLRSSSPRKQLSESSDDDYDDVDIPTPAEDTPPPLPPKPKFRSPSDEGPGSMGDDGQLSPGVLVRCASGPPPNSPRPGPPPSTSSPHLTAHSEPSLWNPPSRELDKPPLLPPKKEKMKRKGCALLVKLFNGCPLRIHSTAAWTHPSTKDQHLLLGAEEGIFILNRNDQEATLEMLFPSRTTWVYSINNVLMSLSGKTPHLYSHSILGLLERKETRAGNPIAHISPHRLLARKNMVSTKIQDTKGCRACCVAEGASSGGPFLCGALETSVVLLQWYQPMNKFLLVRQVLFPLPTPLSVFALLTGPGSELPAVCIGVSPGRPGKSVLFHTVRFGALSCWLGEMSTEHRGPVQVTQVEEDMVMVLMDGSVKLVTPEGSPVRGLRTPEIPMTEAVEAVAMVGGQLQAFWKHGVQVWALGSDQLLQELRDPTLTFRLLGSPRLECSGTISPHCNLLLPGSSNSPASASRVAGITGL
Tested compounds: compounds prepared in the Examples of this invention.
Preparation of compound stock solution: dissolve the test compound in 100% DMSO to make a 10 mM stock solution;
Preparation of 4×Kinase Reaction Buffer:
Preparation of 2×HPK1 Kinase Solution:
Preparation of 4×ATP Mixture:
Dilute the stock solution of the test compound by 5 times with 100% DMSO, make a 4-fold equal dilution in a 96-well dilution plate, add 1 μL of the compound to 49 μL of kinase reaction buffer, and shake on a microplate shaker for 20 minutes. Transfer 2 μL of 2×HPK1 kinase solution to 384 reaction plate, add 1 μL of the test compound to the 384 reaction plate (Greiner, Cat #784075), centrifuge for 1 minute (1000 rpm/min), incubate at 25° C. for 10 minutes. Transfer 1 μL of the 4×ATP mixture to a 384 reaction plate, centrifuge for 1 minute (1000 rpm/min), and incubate at 25° C. for 60 minutes. In the reaction system, the final concentration of DMSO is 0.5%. Transfer 4 μL of ADP-Glo to a 384 reaction plate, centrifuge for 1 minute (1000 rpm/min), and incubate at 25° C. for 40 minutes. Transfer 8 μL detection solution to a 384 reaction plate, centrifuge for 1 minute (1000 rpm/min), and incubate at 25° C. for 40 minutes. The […] is read using a Biotek multi-function plate reader, and the IC50 (half inhibitory concentration) of the compound is obtained using a four-coefficient nonlinear fitting formula.
On the technique in general: ADP-Glo first removes unused ATP, then detects ADP through luciferase.
Turning to `CN1CCN(c2ccc3cc2OCCCOc2cccc(F)c2-c2cc4c-3n[nH]c4cn2)C[C@@H]1CO` [Compound 130, [(2R)-4-{16-fluoro-7,11-dioxa-19,22,23-triazapentacyclo[16.5.2.1^2,6.0^12,17.0^21,24]hexacosa-1(23),2,4,6(26),12(17),13,15,18,20,24-decaen-5-yl}-1-methylpiperazin-2-yl]methanol], the pIC50 (in general, −log10 of the IC50, conventionally taken in molar units) is at least 8.30.
The same measure for `CN1CCN(c2ccc3cc2OCCCOc2cccc(F)c2-c2cc4c-3n[nH]c4cn2)C[C@H]1CO` [Compound 131, [(2S)-4-{16-fluoro-7,11-dioxa-19,22,23-triazapentacyclo[16.5.2.1^2,6.0^12,17.0^21,24]hexacosa-1(23),2,4,6(26),12(17),13,15,18,20,24-decaen-5-yl}-1-methylpiperazin-2-yl]methanol]: at least 8.30; for `O=C1OC[C@H]2CN(c3ccc4cc3OCCCOc3cccc(F)c3-c3cc5c-4n[nH]c5cn3)CCN12` [Compound 134, (8aR)-7-{16-fluoro-7,11-dioxa-19,22,23-triazapentacyclo[16.5.2.1^2,6.0^12,17.0^21,24]hexacosa-1(23),2,4,6(26),12(17),13,15,18,20,24-decaen-5-yl}-hexahydro-1H-[1,3]oxazolo[3,4-a]pyrazin-3-one]: at least 8.30; for `O=C1OC[C@@H]2CN(c3ccc4cc3OCCCOc3cccc(F)c3-c3cc5c-4n[nH]c5cn3)CCN12` [Compound 135, (8aS)-7-{16-fluoro-7,11-dioxa-19,22,23-triazapentacyclo[16.5.2.1^2,6.0^12,17.0^21,24]hexacosa-1(23),2,4,6(26),12(17),13,15,18,20,24-decaen-5-yl}-hexahydro-1H-[1,3]oxazolo[3,4-a]pyrazin-3-one]: at least 8.30.
The same measure for `CN1C[C@H]2CN(c3ccc4cc3OCCCOc3cccc(F)c3-c3cc5c-4n[nH]c5cn3)CCN2CC1=O` [Compound 137, (9aR)-8-{16-fluoro-7,11-dioxa-19,22,23-triazapentacyclo[16.5.2.1^2,6.0^12,17.0^21,24]hexacosa-1(23),2,4,6(26),12(17),13,15,18,20,24-decaen-5-yl}-2-methyl-octahydro-1H-[1,4]diazino[1,2-a]pyrazin-3-one]: at least 8.30.
As for `CN1C[C@@H]2CN(c3ccc4cc3OCCCOc3cccc(F)c3-c3cc5c-4n[nH]c5cn3)CCN2CC1=O` [Compound 138, (9aS)-8-{16-fluoro-7,11-dioxa-19,22,23-triazapentacyclo[16.5.2.1^2,6.0^12,17.0^21,24]hexacosa-1(23),2,4,6(26),12(17),13,15,18,20,24-decaen-5-yl}-2-methyl-octahydro-1H-[1,4]diazino[1,2-a]pyrazin-3-one], the pIC50 is at least 8.30.
The result for `CN1C[C@@H]2C[C@H]1CN2c1ccc2cc1OCCCOc1cccc(F)c1-c1cc3c-2n[nH]c3cn1` [Compound 140, 16-fluoro-5-[(1S,4S)-5-methyl-2,5-diazabicyclo[2.2.1]heptan-2-yl]-7,11-dioxa-19,22,23-triazapentacyclo[16.5.2.1^2,6.0^12,17.0^21,24]hexacosa-1(23),2,4,6(26),12(17),13,15,18,20,24-decaene] reads at least 8.30; that for `CN1C[C@H]2C[C@@H]1CN2c1ccc2cc1OCCCOc1cccc(F)c1-c1cc3c-2n[nH]c3cn1` [Compound 141, 16-fluoro-5-[(1R,4R)-5-methyl-2,5-diazabicyclo[2.2.1]heptan-2-yl]-7,11-dioxa-19,22,23-triazapentacyclo[16.5.2.1^2,6.0^12,17.0^21,24]hexacosa-1(23),2,4,6(26),12(17),13,15,18,20,24-decaene], at least 8.30.
Consider `Fc1cccc2c1-c1cc3c(n[nH]c3cn1)-c1ccc(N3C[C@@H]4C[C@H]3CN4C3COC3)c(c1)OCCCO2` [Compound 142, 16-fluoro-5-[(1S,4S)-5-(oxetan-3-yl)-2,5-diazabicyclo[2.2.1]heptan-2-yl]-7,11-dioxa-19,22,23-triazapentacyclo[16.5.2.1^2,6.0^12,17.0^21,24]hexacosa-1(23),2,4,6(26),12(17),13,15,18,20,24-decaene], for which the pIC50 was 7.30 to 8.30.
